Usually IC50 stands for the concentration needed to halve the response being measured. The low end stands for greater potency in that assay, the high end for weaker potency in that assay. Usually EC50 stands for the concentration that produces a half-maximal response.

One experiment concerns the target α1A (Homo sapiens, UniProt P35348). Kind of experiment: PDSP radioligand competition binding. The note with it: radioligand [^3H]Prazosin; read-out: In vitro Affinity. Background: In a radioligand displacement assay an active substance lowers the binding of a labelled ligand.
Another experiment deals with AmpC β-lactamase (Escherichia coli, UniProt P00811). The experiment can be described thus: AmpC β-lactamase assay counterscreen for colloidal aggregation. The note with it: <= 10 μM; data not shown. On the technique in general: Counterscreens check selectivity or assay interference.
Chain of AmpC β-lactamase (P00811 20-377): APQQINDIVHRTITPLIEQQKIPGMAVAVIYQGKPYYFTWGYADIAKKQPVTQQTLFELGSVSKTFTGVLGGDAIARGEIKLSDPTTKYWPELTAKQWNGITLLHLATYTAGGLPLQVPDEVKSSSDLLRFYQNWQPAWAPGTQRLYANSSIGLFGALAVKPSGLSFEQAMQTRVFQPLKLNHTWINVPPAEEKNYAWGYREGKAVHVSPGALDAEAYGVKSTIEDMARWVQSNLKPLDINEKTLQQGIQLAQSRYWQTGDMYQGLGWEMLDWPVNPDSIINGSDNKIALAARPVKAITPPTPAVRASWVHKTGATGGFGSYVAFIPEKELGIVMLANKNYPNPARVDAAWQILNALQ
In a further experiment the test system is male C57BL/6J mice. The experiment can be described thus: PCP-induced hyperlocomotor activity (open field). Format: in vivo. How it is done: Locomotor activity was assessed in AccuScan activity monitors (41X41X30 cm; AccuScan Instruments, Columbus, OH) with photocells spaced at 1.52 cm as described. In these monitors, the photocells create a grid of light beams, and breaks in the light beams (caused by the mouse) are recorded. The Accuscan software then calculates the total distance travelled (amongst other measurements) by analyzing the sequential order of beam breaks in the grid. Horizontal activity was measured as the total distance traveled in centimeters and was recorded in 5-minute bins. PCP-induced hyperlocomotor activity: mice (n = 16) previously acclimated to activity chambers were placed into the chambers for 15 minutes. […] Subsequently, mice were injected with 6.0 mg/kg PCP (i.p.) and returned to the chamber for 90 minutes. Induction of AMPH-induced hyperlocomotor activity followed an identical protocol except locomotor activity was recorded for a total of 75 minutes and 3 mg/kg AMPH was used (i.p.).

For the next experiment, the target named is T1, 5-HT2A (Homo sapiens, UniProt P28223).
T1 construct: expressed in transfected cells
T1 sequence (P28223 whole entry, looked up): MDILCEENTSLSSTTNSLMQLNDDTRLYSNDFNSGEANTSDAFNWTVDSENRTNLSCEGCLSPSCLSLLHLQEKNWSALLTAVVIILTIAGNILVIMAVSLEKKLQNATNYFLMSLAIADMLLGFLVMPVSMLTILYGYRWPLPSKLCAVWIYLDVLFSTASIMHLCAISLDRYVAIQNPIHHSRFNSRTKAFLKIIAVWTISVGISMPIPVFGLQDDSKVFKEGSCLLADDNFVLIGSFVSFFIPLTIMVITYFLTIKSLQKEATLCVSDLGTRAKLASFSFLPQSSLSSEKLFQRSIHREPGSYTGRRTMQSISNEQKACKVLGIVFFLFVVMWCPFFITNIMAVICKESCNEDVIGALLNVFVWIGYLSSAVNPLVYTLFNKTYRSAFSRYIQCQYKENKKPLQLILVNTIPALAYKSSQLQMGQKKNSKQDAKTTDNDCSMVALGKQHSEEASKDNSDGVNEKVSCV
Kind of experiment: PDSP receptor functional assay. Format: cell-based.

Another experiment deals with D5 (Homo sapiens, UniProt P21918). Kind of experiment: PDSP receptor functional assay. Format: cell-based.
Chain of D5 (P21918 whole entry, looked up): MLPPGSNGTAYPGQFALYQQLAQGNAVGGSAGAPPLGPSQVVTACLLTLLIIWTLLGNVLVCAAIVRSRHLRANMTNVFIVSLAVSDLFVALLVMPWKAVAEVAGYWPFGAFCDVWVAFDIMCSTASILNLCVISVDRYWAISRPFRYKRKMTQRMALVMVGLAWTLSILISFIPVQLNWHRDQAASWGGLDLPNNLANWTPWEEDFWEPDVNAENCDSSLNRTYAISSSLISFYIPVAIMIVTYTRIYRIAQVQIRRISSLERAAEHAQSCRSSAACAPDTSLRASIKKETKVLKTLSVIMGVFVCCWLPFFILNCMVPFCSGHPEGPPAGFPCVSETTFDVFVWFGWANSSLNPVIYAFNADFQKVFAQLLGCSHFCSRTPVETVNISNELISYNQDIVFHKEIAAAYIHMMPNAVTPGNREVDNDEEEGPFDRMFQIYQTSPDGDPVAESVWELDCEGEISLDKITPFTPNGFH
The target in another experiment is T2, 5-HT2C (Homo sapiens, UniProt P28335).
T2 construct: expressed in transfected cells
T2 sequence (P28335 33-458): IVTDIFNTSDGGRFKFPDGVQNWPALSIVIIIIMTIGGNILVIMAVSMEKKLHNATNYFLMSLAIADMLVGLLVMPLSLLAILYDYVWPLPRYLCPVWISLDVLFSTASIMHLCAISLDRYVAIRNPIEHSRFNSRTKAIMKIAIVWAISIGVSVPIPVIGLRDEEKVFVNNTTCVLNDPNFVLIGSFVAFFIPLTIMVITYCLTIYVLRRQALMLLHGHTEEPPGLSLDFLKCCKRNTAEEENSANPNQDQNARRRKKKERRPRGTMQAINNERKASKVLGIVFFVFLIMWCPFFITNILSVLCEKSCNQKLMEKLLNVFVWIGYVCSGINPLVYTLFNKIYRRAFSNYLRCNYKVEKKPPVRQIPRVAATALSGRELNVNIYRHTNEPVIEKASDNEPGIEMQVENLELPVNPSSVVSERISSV
Kind of experiment: PDSP radioligand competition binding. The settings on record: radioligand [^3H]Mesulergine; read-out: In Vitro Affinity.

The next experiment addresses T3, D4 (Homo sapiens, UniProt P21917).
T3 construct: expressed in transfected cells
T3 sequence (P21917 1-419): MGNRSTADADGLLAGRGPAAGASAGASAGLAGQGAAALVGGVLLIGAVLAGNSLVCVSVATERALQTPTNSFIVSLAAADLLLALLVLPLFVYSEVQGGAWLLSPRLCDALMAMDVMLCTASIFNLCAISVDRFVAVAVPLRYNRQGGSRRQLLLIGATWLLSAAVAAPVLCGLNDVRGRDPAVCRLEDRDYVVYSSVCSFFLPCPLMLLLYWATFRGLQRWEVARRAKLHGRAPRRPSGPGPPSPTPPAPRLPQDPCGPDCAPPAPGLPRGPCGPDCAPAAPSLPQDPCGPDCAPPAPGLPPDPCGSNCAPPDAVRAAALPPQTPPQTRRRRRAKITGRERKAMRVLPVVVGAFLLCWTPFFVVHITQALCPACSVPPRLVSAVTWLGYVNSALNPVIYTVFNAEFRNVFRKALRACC
Kind of experiment: PDSP receptor functional assay. Format: cell-based.

Chain of α1A (P35348 whole entry): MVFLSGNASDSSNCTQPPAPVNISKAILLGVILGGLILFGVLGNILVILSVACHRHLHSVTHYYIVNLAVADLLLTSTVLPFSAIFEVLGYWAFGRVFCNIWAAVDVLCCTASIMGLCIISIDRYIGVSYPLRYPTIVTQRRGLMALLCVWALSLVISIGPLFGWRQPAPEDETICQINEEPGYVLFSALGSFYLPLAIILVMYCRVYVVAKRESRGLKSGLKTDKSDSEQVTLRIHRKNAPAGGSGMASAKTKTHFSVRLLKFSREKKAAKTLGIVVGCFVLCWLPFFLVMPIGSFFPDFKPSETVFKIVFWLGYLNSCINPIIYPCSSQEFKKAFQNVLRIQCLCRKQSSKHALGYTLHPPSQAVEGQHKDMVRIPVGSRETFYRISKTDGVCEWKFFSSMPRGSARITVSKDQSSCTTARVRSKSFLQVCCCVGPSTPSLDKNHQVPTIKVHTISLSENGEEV

Consider `COc1cc2c3c(c1OC)-c1ccccc1C[C@H]3N(C)CC2` [nuciferine], for which the values for the Ki at α1A and on 5-HT2C were 1390 nM and 60.5 nM, respectively. For the same compound, on AmpC β-lactamase, the “inhibition of AmpC β-lactamase” value is given as “did not inhibit”. The figures for the PCP-stimulated locomotor activity entry in the experiment on male C57BL/6J mice (3 mg/kg i.p. before 6.0 mg/kg PCP) and with male C57BL/6J mice (10.0 mg/kg i.p. before 6.0 mg/kg PCP) were “failed to significantly alter the PCP-induced hyperlocomotion” and “significantly blocked”, respectively. Besides, the results for the “Function Type” value at 5-HT2A, on D5 and on D4 were “Antagonist”, “Partial agonist” and “agonist”, respectively. In addition, the IC50 against 5-HT2A (5-HT2A antagonist activity) is 478 nM. The EC50 stood at 478 nM at 5-HT2A (antagonist), 2600 nM on D5 and 2000 nM at D4 (agonist). Besides, on D5 (partial agonist efficacy, read-out: maximal response), the Emax amounted to 50%.

The values above are taken from PMC4786259 (PLoS ONE, 2016).
